Converted amounts (≈) assume the structure as drawn. Counter-ions that a name gives are not always drawn. Like-named read-outs stand apart in the source and are kept apart here.
How the values were obtained:
Type in all cases: cell-based
E. coli NIHJ = assay: Antibacterial activity (MIC, agar plate, standard method of the Japanese Chemotherapeutic Society); details: 10^4 cells/plate, 37° C., 20 hours
Protocol: (§1) According to the standard method of the Japanese Chemotherapeutic Society [Chemotherapy, Vol. 23, Pages 1-2 (1975)], a culture obtained by cultivating bacteria in Heart Infusion broth (manufactured by Eken Kagakusha) at 37° C. for 20 hours was inoculated into a Heart Infusion agar medium (manufactured by Eiken Kagakusha) and cultivated at 37° C. for 20 hours, after which the growth of bacteria was examined visually. The minimum inhibitory concentration at which the bacterial growth was inhibited was taken as MIC (μg/ml). The amount of the inoculated bacteria was 10^4 cells/plate (10^6 cells/ml).

Ser. marcescens IID620 = assay: Antibacterial activity (MIC, agar plate)
Protocol: as §1

Kl. pneumoniae Y-50 = assay: Antibacterial activity (MIC, agar plate); details: 37° C., 20 hours
Protocol: as §1

Pro. mirabilis T-100 = assay: Antibacterial activity (MIC, agar plate); details: 37° C., 20 hours
Protocol: as §1

[1] = tested on: E. coli TK3 (Penicillinase-producing bacteria); assay: Antibacterial activity (MIC, agar plate)
Protocol: as §1

Aci. calcoaceticus A-6 = assay: Antibacterial activity (MIC, agar plate); details: 37° C., 20 hours
Protocol: as §1

Ent. cloacae IID977 = assay: Antibacterial activity (MIC, agar plate); details: 10^4 cells/plate, 37° C., 20 hours
Protocol: as §1

Pro. mirabilis T-111 = assay: Antibacterial activity (MIC, agar plate)
Protocol: as §1

Al. faecalis B-1 = assay: Antibacterial activity (MIC, agar plate)
Protocol: as §1

Kl. pneumoniae Y-41 = assay: Antibacterial activity (MIC, agar plate); details: Kl. pneumoniae Y-41, 10^4 cells/plate, 37° C., 20 hours
Protocol: as §1

Klebsiella spp Y-72 = assay: Antibacterial activity (MIC, agar plate); details: Klebsiella spp Y-72, 10^4 cells/plate, 37° C., 20 hours
Protocol: as §1

[2] = tested on: Pro. vulgaris GN76 (Cephalosporinase-producing bacteria); assay: Antibacterial activity (MIC, agar plate)
Protocol: as §1

Pro. morganii T-216 = assay: Antibacterial activity (MIC, agar plate)
Protocol: as §1

[3] = Escherichia coli, read-out: MIC
[4] = Serratia marcescens, IID620, 20 h
[5] = Klebsiella pneumoniae, Y50, 10^4 cells/plate, read-out: MIC
[6] = Proteus mirabilis, T100, 10^4 cells/plate, read-out: MIC
[7] = Acinetobacter calcoaceticus, A6, 10^4 cells/plate, read-out: MIC
[8] = Enterobacter cloacae, read-out: MIC
[9] = Alcaligenes faecalis, B1, Al. faecalis B-1, 10^4 cells/plate, 37° C., 20 hours, read-out: MIC
[10] = Klebsiella pneumoniae, Y41, read-out: MIC
[11] = Morganella morganii, T216, 20 h
[12] = Serratia marcescens, Ser. marcescens IID620, 10^4 cells/plate, 37° C., 20 hours, read-out: MIC
[13] = Proteus vulgaris, Pro. vulgaris GN76 (cephalosporinase-producing), 10^4 cells/plate, 37° C., 20 hours, read-out: MIC
[14] = Morganella morganii, T216, Pro. morganii T-216, 10^4 cells/plate, 37° C., 20 hours, read-out: MIC

Row | Compound | MIC (E. coli NIHJ; [3]) [mg/L] | MIC (Ser. marcescens IID620; [4]) [mg/L] | MIC (Kl. pneumoniae Y-50; [5]) [mg/L] | MIC (Pro. mirabilis T-100; [6]) [mg/L] | MIC ([1]; Escherichia coli, 20 h) [mg/L] | MIC (Aci. calcoaceticus A-6; [7]) [mg/L] | MIC (Ent. cloacae IID977; [8]) [mg/L] | MIC (Pro. mirabilis T-111; Proteus mirabilis, T111, 20 h) [mg/L] | MIC (Al. faecalis B-1; [9]) [mg/L] | MIC (Kl. pneumoniae Y-41; [10]) [mg/L] | MIC (Klebsiella spp Y-72; Y72, read-out: MIC) [mg/L] | MIC ([2]; Proteus vulgaris, GN76, 20 h) [mg/L] | MIC (Pro. morganii T-216; [11]) [mg/L] | MIC (Ser. marcescens IID620; [12]) [mg/L] | MIC [2, 13] [mg/L] | MIC (Pro. morganii T-216; [14]) [mg/L] | other results
1 | CO/N=C(\C(=O)NC1C(=O)N2C(C(=O)O)=C(Cn3cnc(NC(C)=O)n3)CS[C@H]12)c1csc(N)n1.O=C(O)C(F)(F)F (stereo partly drawn) [A, Trifluoroacetic acid salt of 7-[2-(2-aminothiazol-4-yl)-2-(syn)-methoxyiminoacetamido]-3-[(3-acetamido-1,2,4-triazolyl)methyl]-Δ^3-cephem-4-carboxylic acid] |  |  |  |  |  |  |  |  |  |  |  |  |  |  |  |  | MIC (E. coli NIHJ): ≤ 0.1 mg/L; MIC (Ser. marcescens IID620; Ser. marcescens IID620, 10^4 cells/plate, 37° C., 20 hours): 0.78 mg/L; MIC (Kl. pneumoniae Y-50; 10^4 cells/plate): ≤ 0.1 mg/L; MIC (Pro. mirabilis T-100; 10^4 cells/plate): ≤ 0.1 mg/L; MIC ([1]; E. coli TK3 (penicillinase-producing), 10^4 cells/plate, 37° C., 20 hours): 0.39 mg/L; MIC (Aci. calcoaceticus A-6; 10^4 cells/plate): 25 mg/L; MIC (Ent. cloacae IID977): 6.25 mg/L; MIC (Pro. mirabilis T-111; Pro. mirabilis T-111, 10^4 cells/plate, 37° C., 20 hours): 0.2 mg/L; MIC (Al. faecalis B-1; Al. faecalis B-1, 10^4 cells/plate, 37° C., 20 hours): 50 mg/L; MIC (Kl. pneumoniae Y-41): 0.2 mg/L; MIC (Klebsiella spp Y-72): 6.25 mg/L; MIC ([2]; Pro. vulgaris GN76 (cephalosporinase-producing), 10^4 cells/plate, 37° C., 20 hours): 3.13 mg/L; MIC (Pro. morganii T-216; Pro. morganii T-216, 10^4 cells/plate, 37° C., 20 hours): 0.2 mg/L
2 | CO/N=C(\C(=O)NC1C(=O)N2C(C(=O)O)=C(CNC(=O)c3ccco3)CSC12)c1csc(N)n1 (stereo not drawn) [B, Trifluoroacetic acid salt of 7-[2-(2-aminothiazol-4-yl)-2-(syn)-methoxyiminoacetamido]-3-(furan-2-yl-carboxamido)methyl-Δ^3-cephem-4-carboxylic acid] | ≤ 0.1 | 0.2 | ≤ 0.1 | ≤ 0.1 | 0.39 | 25 | 25 | 0.2 | 12.5 | 0.2 | 1.56 | 0.78 | 0.39 |  |  |  | 
3 | CO/N=C(\C(=O)NC1C(=O)N2C(C(=O)O)=C(CNC(C)=O)CSC12)c1csc(N)n1 (stereo not drawn) [C, Trifluoroacetic acid salt of 7-[2-(2-aminothiazol-4-yl)-2-(syn)-methoxyiminoacetamido]-3-acetamidomethyl-Δ^3-cephem-4-carboxylic acid] | ≤ 0.1 |  | ≤ 0.1 | ≤ 0.1 | 0.39 | 12.5 | 50 | 0.39 | 12.5 | 0.2 | 6.25 |  |  | 1.56 | 6.25 | 0.78 | 
4 | Cc1nnc(SCC2=C(C(=O)O)N3C(=O)[C@@H](NC(=O)Cn4cnnn4)[C@H]3SC2)s1 [Cephazoline, reference compound] | 1.56 (≈ 3.43 µM) |  | 1.56 (≈ 3.43 µM) |  |  | 200 (≈ 440 µM) | > 200 |  | 100 (≈ 220 µM) | 3.13 (≈ 6.89 µM) | > 200 |  |  | > 200 | > 200 | > 200 | MIC ([1]; Escherichia coli, E. coli TK3 (penicillinase-producing), 10^4 cells/plate, 37° C., 20 hours, read-out: MIC): 25 mg/L (≈ 55 µM); MIC (Pro. mirabilis T-111; Proteus mirabilis, T111, Pro. mirabilis T-111, 10^4 cells/plate, 37° C., 20 hours, read-out: MIC): 6.25 mg/L (≈ 13.8 µM)
5 | CO/N=C(\C(=O)NC1C(=O)N2C(C(=O)O)=C(Cn3ncnn3)CSC12)c1csc(N)n1 (stereo not drawn) [F, Trifluoroacetic acid salt of 7-[2-(2-aminothiazol-4-yl)-2-(syn)-methoxyiminoacetamido]-3-[2-(1,2,3,4-tetrazolyl)methyl]-Δ^3-cephem-4-carboxylic acid] | ≤ 0.1 | 0.39 | ≤ 0.1 |  | ≤ 0.1 | 6.25 | 12.5 | ≤ 0.1 |  | ≤ 0.1 |  |  | ≤ 0.1 |  | 0.78 |  | MIC (Al. faecalis B-1; Alcaligenes faecalis, B1, 20 h): 3.13 mg/L
6 | CO/N=C(\C(=O)NC1C(=O)N2C(C(=O)O)=C(Cn3cnnn3)CSC12)c1csc(N)n1 (stereo not drawn) [G, Trifluoroacetic acid salt of 7-[2-(2-aminothiazol-4-yl)-2-(syn)-methoxyiminoacetamido]-3-[1-(1,2,3,4-tetrazolyl)methyl]-Δ^3-cephem-4-carboxylic acid] | ≤ 0.1 |  | ≤ 0.1 |  | 0.39 | 25 | 6.25 | 0.2 | 12.5 | 0.2 |  | 0.78 | 0.2 | 1.56 |  |  | 

Reference: patent US4879381A, “7-(substituted or unsubstituted amino) 3-substituted methyl-^3 cephem-4-carboxylic acid” (Toyoma Chemical Company, Ltd., priority 1980, dated 1989)
